The subject of data set [1] is SARS-CoV-2 USA-WA1/2020. Put plainly: SARS-CoV-2 immunofluorescence (IF) assay, HeLa-ACE2 (Method 1). Particulars: Severe acute respiratory syndrome coronavirus 2, HeLa-ACE2, SARS-CoV-2 USA-WA1/2020, 2% FBS. It counts as cell-based.
Data set [2] concerns SARS-CoV-2 USA-WA1/2020. Put plainly: SARS-CoV-2 CPE assay, Vero E6 (Method 2). Particulars: Severe acute respiratory syndrome coronavirus 2, Vero C1008, 2% FBS. The class given is cell-based.
Data set [3] deals with SARS-CoV-2 USA-WA1/2020. Put plainly: SARS-CoV-2 viral yield reduction (VYR) assay, Caco-2 (Method 2). It counts as cell-based. The conditions noted are these: Severe acute respiratory syndrome coronavirus 2, 2% FBS.
Experimental: After sufficient virus replication occurs (3 days for SARS-CoV-2), a sample of supernatant is taken from each infected well (three replicate wells are pooled) and tested immediately or held frozen at −80° C. for later virus titer determination. After maximum CPE is observed, the viable plates are stained with neutral red dye. The incorporated dye content is quantified as described above to generate the EC50 and CC50 values.
Serial 1/10 dilutions of virus are made and plated into 4 replicate wells containing fresh cell monolayers of Vero E6 cells. Plates are then incubated, and cells are scored for presence or absence of virus after distinct CPE is observed, and the CCID50 calculated using the Reed-Muench method (24). […] Dividing EC90 by the CC50 gives the SI value for this test.
Data set [4] has as its system SARS-CoV-2 USA-WA1/2020. Put plainly: SARS-CoV-2 CPE assay, Vero 76 (Method 2). The class given is cell-based. The conditions noted are these: Severe acute respiratory syndrome coronavirus 2, 2% FBS.
Data set [5] concerns SARS-CoV-2 Beta (B.1.351). Put plainly: SARS-CoV-2 IF assay, HeLa-ACE2 (Method 1). The conditions noted are these: 2% FBS. The class given is cell-based.
Data set [6] has as its system SARS-CoV-2 Delta (B.1.617.2). Put plainly: SARS-CoV-2 IF assay, HeLa-ACE2 (Method 1). The class given is cell-based. Particulars: 2% FBS.
Data set [7] deals with SARS-CoV-2 Omicron (B.1.1.529). Put plainly: SARS-CoV-2 IF assay, HeLa-ACE2 (Method 1). The class given is cell-based. The conditions noted are these: Severe acute respiratory syndrome coronavirus 2, HeLa-ACE2, SARS-CoV-2 Omicron (B.1.1.529), 2% FBS.
Data set [8] deals with Influenza B Victoria/Florida. Put plainly: Influenza B CPE assay, MDCK. It counts as cell-based. The conditions noted are these: Influenza B virus, albumin content N/A. The source says: (§1) The antiviral assays were cell line based and consisted in transfecting each of the viruses tested in a compatible cell line. Upon infection and after drug treatment, viral survival and cell toxicity were reported from the readout of three different assays: cytopathic effect (CPE), viral yield reduction (VYR), or immunofluorescence (IF).

Data set [9] deals with Influenza B Yamagata/Brisbane. Put plainly: Influenza B CPE assay, MDCK. It counts as cell-based. The conditions noted are these: Influenza B virus, albumin content N/A.
Source text: as §1

Data set [10] can be described thus: Cytotoxicity, neutral red, Vero E6. It counts as cell-based. The conditions noted are these: African green monkey, Vero E6 cells (uninfected toxicity wells), with CPE assay, not converted for FBS. As to the method:
Confluent or near-confluent cell culture monolayers of Vero E6 cells are prepared in 96-well disposable microplates the day before testing. Cells are maintained in MEM supplemented with 5% FBS. For antiviral assays the same medium is used but with FBS reduced to 2% and supplemented with 50-μg/ml gentamicin. Compounds are dissolved in DMSO, saline or the diluent requested by the submitter. […] The test compound is prepared at four serial log 10 concentrations, usually 0.1, 1.0, 10, and 100 μg/ml or μM (per sponsor preference). Lower concentrations are used when insufficient compound is supplied. Five microwells are used per dilution: three for infected cultures and two for uninfected toxicity cultures. Controls for the experiment consist of six microwells that are infected and not treated (virus controls) and six that are untreated and uninfected (cell controls) on every plate. A known active drug is tested in parallel as a positive control drug using the same method as is applied for test compounds. The positive control is tested with every test run.
Growth media is removed from the cells and the test compound is applied in 0.1 ml volume to wells at 2× concentration. Virus, normally at ˜60 CCID50 (50% cell culture infectious dose) in 0.1 ml volume is added to the wells designated for virus infection. […] The dye content in each well is quantified using a spectrophotometer at 540 nm wavelength. […]

In the next data set the test system is 13 viruses and variants. The experiment in a line: organism not typed. It counts as cell-based. Particulars: read-out: antiviral activity (best EC50 per virus/strain/variant).
In a further data set the test system is A549-ACE2 cells. Particulars: with CPE assays (SARS-CoV-2 WA1, Delta, OC43), not converted for FBS.
In another data set the test system is MRC-5 cells. Particulars: human, 6 days.
A short description of data set [11]: in vitro. Particulars: human, CC50 (μM), A549-ACE2; with CPE assays (SARS-CoV-2 WA1, Delta, OC43); not converted for FBS.
Data set [12] can be described thus: in vitro. The conditions noted are these: African green monkey, CC50 (μM), Vero 76; with CPE assays (SARS-CoV-2 WA1, Delta); not converted for FBS.
For the next data set, the system named is Influenza A H1N1/WSN/33. The experiment in a line: Influenza A virus IF assay, A549 (Method 7).
In another data set the test system is FBS. The experiment in a line: Protein binding by rapid equilibrium dialysis (RED) in FBS. The conditions noted are these: 1 μM, n = 3. For orientation: In equilibrium dialysis free small molecules cross a membrane that holds back macromolecules.

Each structure is given as a SMILES string. Like-named read-outs stand apart in the source and are kept apart here. Bounds are passed on as bounds.

Experimental for Influenza A H1N1/WSN/33: A549 cells were infected with each viral strain at MOI 0.05. After 24 h post-infection with A/WSN/33 cells were fixed with 4% formaldehyde for 30 min. Cells were briefly washed with PBS, then permeabilized with 0.1% Triton X-100 in PBS for 15 minutes. Blocking occurred at room temperature for 1 hour with 0.5% BSA in PBS followed by incubation with the NP antibody (HT103, a gift from Thomas Moran) in 0.5% BSA in PBS for 1 hour at room temperature. Cells were washed with PBS 2× and incubated with a fluorescently-labeled secondary antibody, alexa-fluor-488 (Invitrogen), in 0.5% BSA in PBS with DAPI for 45 min at room temperature. Two washes with PBS were performed before imaging the cells on a Celigo Image Cytometer. Infected cells (488 nm) and total cells (DAPI) were quantified using the Celigo (Nexcelcom) imaging cytometer. Infectivity was measured by the accumulation of viral NP protein (fluorescence accumulation). Percent infection was quantified as ((Infected cells/Total cells)−Background)*100 and the DMSO control was then set to 100% infection for analysis. Data was fit using nonlinear regression and IC50s for each experiment were determined using GraphPad Prism version 8.0.2 (San Diego, CA). Cytotoxicity was also performed using the MTT assay (Roche), according to the manufacturer's instructions. […]

For `Cc1c(-c2ccc(O)cc2)n(Cc2ccc(OCCN3CCCCC3)cc2)c2ccc(O)cc12` [Pipendoxifene], the EC50 came to 675 nM with SARS-CoV-2 USA-WA1/2020 [1]; 520 nM in the data set on SARS-CoV-2 USA-WA1/2020 [2]; 540 nM in the data set with SARS-CoV-2 USA-WA1/2020 [3]; 2600 nM in the data set with SARS-CoV-2 USA-WA1/2020 [4]; 668 nM in data set [5] (SARS-CoV-2 Beta (B.1.351)); 1050 nM in data set [5] (Severe acute respiratory syndrome coronavirus 2, HeLa-ACE2, SARS-CoV-2 Beta (B.1.351)). For the same molecule, the EC50 turned out to be 677 nM in data set [6] (SARS-CoV-2 Delta (B.1.617.2)); 740 nM in data set [6] (Severe acute respiratory syndrome coronavirus 2, HeLa-ACE2, SARS-CoV-2 Delta (B.1.617.2)); 750 nM in [7]; 4100 nM in data set [8] (read-out: Corrected EC50); 4100 nM in data set [8] (read-out: EC50); 6700 nM in [9] (read-out: Corrected EC50). Moreover, the EC50 was 6700 nM in [9] (read-out: EC50); under 10000 nM with 13 viruses and variants; 7490 nM in the data set on Influenza A H1N1/WSN/33. Further, the CC50 is 3200 nM in [10]; over 15000 nM in the data set on A549-ACE2 cells; over 1000 nM in the data set with MRC-5 cells; over 10 µM in the data set “in vitro [11]”; 2.9 µM in “in vitro [12]”. The entries for the “Mean unbound (Fub, %)” value in the data set with FBS (2% heat inactivated FBS), with FBS (10% heat inactivated FBS) and with FBS (10% not inactivated FBS) were 25.0%, 5.0% and 4.7%, respectively.

These data come from US20260124192A1, “COMPOUNDS, COMPOSITIONS, AND METHODS OF TREATING RNA VIRAL INFECTIONS” (priority 2024, published 2026).
